Assays:
LasR = target: T1, LasR (Pseudomonas aeruginosa, UniProt P25084); assay: E. coli bioindicator expressing LasR (pAL105, lasI::luxCDABE luminescence); assay type: cell-based; conditions: OC12-HSL 100 µM; QSIs at 0.1 mg/ml, naringenin and naringin at 0.5 mg/ml
T1 construct: expressed in transfected cells; host or cells: Escherichia coli JLD271 carrying pAL105 (pSB401-derivative, lasR+ lasI::luxCDABE)
Protocol: (§1) We determined whether the AHL-binding transcriptional factors LasR and RhlR were impaired in their capacity to activate expression of the QS-regulated genes in the presence of various QSIs. This was achieved by using two E. coli bioindicator strains expressing either LasR or RhlR proteins and harboring an appropriate reporter lux operon for measuring their transcriptional activity in the presence of OC12-HSL at 100 µM and C4-HSL at 10 µM, respectively. Adding C4-HSL to the pAL101-bioindicator or OC12-HSL to the pAL105-bioindicator induced the expression of the reporter lux operon and the consequent production of luminescence. In contrast, only background levels of luminescence were detected in control strains harboring the plasmids pAL102 or pAL106, which lacks the rhlR or lasR gene, respectively.
(§2) Figure 7 QSIs modulated activity of the AHL-sensors in P. aeruginosa. Luminescence of the reporting operon lux, expressed in relative light units (RLU/OD600), was measured in E. coli bioindicator strains harboring the LasR (A) and RhlR (B) AHL-sensing systems of P. aeruginosa in the presence of […]. The QSIs estradiol, estrone, estriol and hordenine were added at 0.1 mg/ml, while naringenin and naringin, added at 0.5 mg/ml, were used as QSI-reference and non-QSI reference, respectively. Each test (n = 6) was compared with the DMSO-condition using Student's t test. Asterisks indicate statistically different data (p value of ≤0.01).
(§3) Escherichia coli JLD271 biosensor strains harboring LasR- and RhlR-based plasmids pAL105 and pAL101 and control plasmids pAL106 (LasR^-) and pAL102 (RhlR^−) (Table 1) were prepared according to Vandeputte et al.. Briefly, these strains were grown in LB medium supplemented with tetracycline (10 µg/ml) and chloramphenicol (25 µg/ml) for 24 h. Then 50-µl portions of the cultures were subcultured in 1 ml of LB medium (the starting OD600 ranged between 0.02 and 0.025 corresponding to 5.10^6 CFU) supplemented with 10 µl of DMSO (1% [vol/vol] final), 10 µl of naringenin or naringin dissolved in DMSO (2 mM, final concentration), or 10 µl of the molecule to be tested. To induce the expression of the lux operon, 0, 1, 10 or […] of C4-HSL was added to pAL101 and pAL102, while OC12-HSL was added to pAL105 and pAL106. After incubation for 2 h at 37°C with agitation (175 rpm), 200 µl of culture was transferred to 96-well OptiPlate-96 F plates from Perkin-Elmer, and the luminescence of each sample was measured by using a TopCount NXT device from Perkin-Elmer. The LasR(pAL106) and RhlR(pAL102) biosensors were used for background subtraction, and the OD600 values were measured to account for the differences in cell density. All experiments were performed in six replicates. The statistical significance of each test was evaluated by conducting Student's t tests using the GraphPad Prism software, and p values ≤0.05 were considered significant. Naringenin (4′,5,7-trihydroxyflavanone), naringin (4′,5,7-trihydroxyflavanone 7-rhamnoglucoside), the AHLs OC12-HSL and C4-HSL were purchased from Sigma-Aldrich and dissolved freshly in 100% DMSO before use. Tested QSIs were dissolved in 100% DMSO before use.

RhlR = target: T2, RhlR (Pseudomonas aeruginosa, UniProt P54292); assay: E. coli bioindicator expressing RhlR (pAL101, rhlI::luxCDABE luminescence); assay type: cell-based; conditions: C4-HSL 10 µM; QSIs at 0.1 mg/ml, naringenin and naringin at 0.5 mg/ml
T2 construct: expressed in transfected cells; host or cells: Escherichia coli JLD271 carrying pAL101 (pSB401-derivative, rhlR+ rhlI::luxCDABE)
T2 sequence (P54292 whole entry): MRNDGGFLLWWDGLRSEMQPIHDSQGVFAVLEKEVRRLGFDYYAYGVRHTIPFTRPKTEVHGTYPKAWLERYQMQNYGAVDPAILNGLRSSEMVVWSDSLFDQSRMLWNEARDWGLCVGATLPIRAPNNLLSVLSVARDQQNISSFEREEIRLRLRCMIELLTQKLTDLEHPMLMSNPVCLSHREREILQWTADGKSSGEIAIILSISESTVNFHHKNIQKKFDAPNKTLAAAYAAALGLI
Protocol: as §1, §2, §3

[1] = tested on: QS-signal accumulation in P. aeruginosa; assay: AHL (C4-HSL, OC12-HSL) quantification in P. aeruginosa cultures by mass spectrometry; assay type: cell-based, Pseudomonas aeruginosa; conditions: QSI at 0.5 mg/ml, 18-hour
Protocol: (§4) Figure 5 QSIs modulated QS-signal accumulation in P. aeruginosa. Growth kinetics (n = 6) of P. aeruginosa was measured (OD600) in the presence of the QSIs (estradiol, estrone, estriol, hordenine and 4-NPO) at 0.5 mg/ml using DMSO as a negative control. Cell counts were assessed (CFU/ml) at 8- and 18-hour, and C4-HSL and OC12-HSL concentration (µM) were determined in the bacterial cultures at 18-hour. Statistically different values (Student's t test with α = 0.01) are noted by asterisks.
(§5) QS gene transcription in P. aeruginosa PAO1 was monitored using PAO1 strains carrying various gene promoters fused to a lacZ reporter gene, as described in Vandeputte et al., 2010 and Table 1. PAO1 reporter strains were prepared according to Vandeputte et al.. Briefly, 18-hours-old liquid cultures (50 µl) were diluted in order to obtain a starting OD600 nm comprised between 0.02 and 0.03 in fresh LB medium supplemented with 50 mM MOPS pH 7.0 (1 ml), carbenicillin (300 µg/ml) and 10 µl of the QSIs to be tested (OD were measured using a SpectraMax M2 device from Molecular Devices). Test and control QSIs were diluted in 100% DMSO (resulting after addition to the growth medium in a 1% final concentration of DMSO). Cultures were incubated for 18 hours at 37°C with agitation. After incubation, cell densities were assessed spectrophotometrically (OD600 nm) and β-galactosidase assays were performed using the substrate o-nitrophenyl-β-D-galactopyranoside as described previously, [29]. Promoterless-lacZ fusions were used as controls. AHLs were quantified as described in Vandeputte et al.. All tests were performed in quintuplicates and three biological repetitions. The statistical significance of each test was evaluated by conducting Student's t tests and two-way ANOVA combined with the Tukey post-analysis test using the GraphPad Prism software and p values≤0.01 were considered significant.

P. aeruginosa = assay: Growth kinetics of P. aeruginosa in the presence of QSIs; assay type: cell-based, Pseudomonas aeruginosa; conditions: QSI at 0.5 mg/ml, OD600 and CFU at 8 and 18 hour
Protocol: as §4, §5

[2] = tested on: QS-regulated genes lasI, lasR, lasB, rhlI, rhlR, rhlA in P. aeruginosa PAO1; assay: QS-regulated gene expression, lacZ transcriptional fusions in PAO1; assay type: cell-based, Pseudomonas aeruginosa; conditions: QSI at 0.5 mg/ml, 18 hours at 37°C, β-galactosidase
Protocol: Figure 6 QSIs modulated QS-regulated genes in P. aeruginosa. The β-galactosidase (b-Gal) activity in Miller unit (MU) of the transcriptional fusions lasI-lacZ (A), lasR-lacZ (B), lasB-lacZ (C), rhlI-lacZ (D), rhlR-lacZ (E), rhlA-lacZ (F), and aecA-lacZ(G) were measured in the presence of estradiol, estrone, estriol, hordenine at 0.5 mg/ml, and naringenin at 1 mg/ml as a positive control and DMSO as a negative control. The statistical significance of each test (n = 5 and three biological replicates) was evaluated by Student's t test (i.e. each test was compared with the DMSO condition). Asterisks indicate statistically different data (p value of ≤0.01).
as §5

[3] = tested on: Agrobacterium biosensor cells; assay: Minimal bactericidal concentration (MBC); assay type: cell-based, Agrobacterium tumefaciens; conditions: Agrobacterium; 99.9% reduction of 10^5 CFU/ml after 36 h at 30°C; read-out: MBC
Protocol: (§6) Aside from the effect of QSI on QS regulation, the toxicity of these compounds was tested on bacterial cells by measuring two parameters: the minimal inhibitory concentration (MIC) and minimal bactericidal concentration (MBC). MIC, which is the lowest concentration of QSI (µg/ml) inhibiting any visible culture after 36 h of incubation at 30°C, was estimated by culturing 10^5 CFU/ml of the Agrobacterium biosensor cells in the presence of different concentrations of the QSI. MBC, which is the lowest concentration of QSI (µg/ml) that results in a 99.9% reduction of the initial bacterial population (10^5 CFU/ml) after 36 h of incubation at 30°C in the presence of different concentrations of QSI, was estimated by plating 100 µL of the Agrobacterium cultures on agar LBm plates. After an incubation of 48 h at 30°C, CFU were counted and the MBC values were calculated.

[4] = tested on: Agrobacterium biosensor cells; assay: Minimal inhibitory concentration (MIC); assay type: cell-based, Agrobacterium tumefaciens; conditions: Agrobacterium; 10^5 CFU/ml, 36 h at 30°C; read-out: MIC
Protocol: as §6

T1 sequence (P25084 whole entry): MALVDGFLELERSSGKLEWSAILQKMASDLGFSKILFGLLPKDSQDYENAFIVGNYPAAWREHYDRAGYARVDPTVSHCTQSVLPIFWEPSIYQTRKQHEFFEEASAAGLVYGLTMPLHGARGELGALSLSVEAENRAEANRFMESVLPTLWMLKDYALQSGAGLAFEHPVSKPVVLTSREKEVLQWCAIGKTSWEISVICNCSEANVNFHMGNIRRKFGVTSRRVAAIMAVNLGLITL

C[C@@H]1O[C@@H](O[C@H]2[C@H](Oc3cc(O)c4c(c3)O[C@H](c3ccc(O)cc3)CC4=O)O[C@H](CO)[C@@H](O)[C@@H]2O)[C@H](O)[C@H](O)[C@H]1O [naringin, 4′,5,7-trihydroxyflavanone 7-rhamnoglucoside]
effect on LasR functionality (lux luminescence) (LasR): no effect | effect on RhlR functionality (lux luminescence) (RhlR): no effect

C[C@]12CC[C@@H]3c4ccc(O)cc4CC[C@H]3[C@@H]1CC[C@@H]2O [Estradiol, estradiol]
C4-HSL concentration in cell cultures [1]: reduction | OC12-HSL concentration in cell cultures [1]: reduction | effect on LasR functionality (lux luminescence) (LasR): affected LasR functionality | effect on growth of P. aeruginosa (P. aeruginosa): did not affect the growth | expression of six QS-regulated genes (lasI, lasR, lasB, rhlI, rhlR, rhlA) [2]: decreased | MBC [3]: > 100 µg/mL | MIC [4]: > 100 µg/mL

O=C1CC(c2ccc(O)cc2)Oc2cc(O)cc(O)c21 (centres unmarked) [naringenin, 4′,5,7-trihydroxyflavanone]
effect on LasR functionality (lux luminescence) (LasR): less luminescence | effect on RhlR functionality (lux luminescence) (RhlR): less luminescence

Reference: publication PMC3871529, “At a Supra-Physiological Concentration, Human Sexual Hormones Act as Quorum-Sensing Inhibitors” (PLoS ONE, 2013)
